From patent publication US20030045564A1, “Saururus chinensis extract for prevention and treatment of neurodegenerative disease” (priority 2000, published 2003)

Tests used:
[1] = tested on: glutamate-insulted rat cortical cells; conditions: previously patented neuroprotectant, comparison; cited from earlier work
[2] = tested on: NO content released from glutamate-insulted rat cortical cells; test: Measurement of nitric oxide (nitrite in culture broth, Griess reagent); format: cell-based; conditions: for Nitrite / Nitrite post-treatment: post-treatment; for Nitrite: control 75.5, glutamate-treated 145.7; for Nitrite post-treatment / Nitrite pre-treatment: control 70.5, glutamate-treated 165.9
Method: The content of nitrite isolated into culture broth from first cultured cortical cells was assayed by using Griess reagent by Dawson's method(Dawson V L, Brahbhatt H P, Mong J A and Dawson T M (1994) Expression of inducible nitric oxide synthase causes delayed neurotoxicity in primary neuronal-glial cortical cultures. Neuropharmacology 33: 1425-1430).

[3] = tested on: glutamate-insulted rat cortical cells; test: Neuroprotection against glutamate-induced neurotoxicity, cell viability by MTT assay in primary cultured cortical cells; format: cell-based; design: neuroprotective activity (in words): dose or concentration left out as unconfirmed
Method: Primary cultures of mixed cortical cells containing both neuron and glia were prepared from fetal rats as described previously (Kim Y C, Kim S R, Markelonis G J and Oh T H (1998) Ginsenosides Rb1 and Rg3 protect cultured rat cortical cells from glutamate-induced neurodegeneration. J. Neurosci. Res. 53: 426-432).
The cortical cells were plated onto collagen-coated dishes at a density of 1×10^6 cells/ml. The cultured cells were grown in DMEM supplemented with 10% heat-inactivated fetal calf serum, 1 mM sodium pyruvate, 100 IU/ml pecicillin and 100 μg/ml streptomycin at 37° C. in a humidified atmosphere of 95% air/5% CO2. cultures were allowed to mature for 2 weeks before being used for experiments.
Total extract of S. chinensis, fraction and isolated materials were dissolved in DMSO(within final culture concentration, 0.1%) and diluted with distilled water and by passing the solution through Milliporemembrane(0.22 μm, Millex-GV, USA) to make sterile state. The solution was cultured by differentiating the concentration and dosed to neuron cells.
To culture broth of the cortical cells during being cultured, MTT(5 mg/ml) was added by 10% of the culture broth. The broth was cultured for more 3 hours. The formed formazan was dissolved by DMSO and was assayed absorption at 540 nm((Mosmann T (1983) Rapid colorimetric assay for cellular growth and survival: Application to proliferation and cytotoxicity assays. J. Immuno. Methods 65: 55-61)
The neuroprotective activity of these two aristolactam alkaloids against glutamate-induced toxicity was initially evaluated by a timed exposure to alkaloids before or after excitotoxic challenge. Some cultures were pretreated with alkaloids for one hr before a brief exposure (30 min) to glutamate, washed and maintained in DMEM for 24 hr in the absence of alkaloids (pre-treatment) (Table 3). Also, cultures were first exposed to glutamate for 30 min, washed and maintained in DMEM for 24 hr in the presence of alkaloids (post-treatment) (Table 4).
Cortical cells directly isolated from rat fetal were cultured for 14 days. The samples to be tested were treated at different concentrations to cultured cells. After one hour, neurotoxicity was induced by treating 100 μM of glutamate. After 24 hours, the survival cell rate were measured by MTT assay to determine neuroprotective activity of the samples.
Control is the value for primary cultures of rat cortical cells. Control value for MTT was 1.03±0.08 optical density (OD). Glutamate-treated is the value for primary cultures of rat cortical cells exposed to glutamate for 30 min. Glutamate-treated value for MTT was 0.58±0.02 OD.
Viability is calculated as 100×(OD of sample treated−OD of Glutamate-treated)/(OD of control−OD of Glutamate-treated).

catalase = test: Effect on activity of antioxidant enzyme catalase; format: cell-based, rat; conditions: data not shown
SOD = test: Effect on activity of antioxidant enzyme SOD; format: cell-based, rat; conditions: data not shown
GSH-px = test: Effect on activity of antioxidant enzyme GSH-px; format: cell-based, rat; conditions: data not shown
[4] = tested on: [Ca2+]i in glutamate-insulted rat cortical cells; test: Measurement of Ca2+ concentration in cells (Fura-2 AM); format: cell-based; conditions: for [Ca2+]i: pre-treatment, control 75.5, glutamate-treated 425.4
[5] = tested on: peroxide content on glutamate-insulted rat cortical cells; test: Cellular peroxide content in glutamate-injured cortical neurons; format: cell-based
[6] = both pre- and post-treatment paradigms

For `COc1ccc(/C=C/C(=O)O)cc1` [E-p-MCA, (E)-p-methoxycinnamic acid], the “protective activity by treatment paradigm (in words)” value [1] is listed as “significant protective activity only in pre-treatment paradigm”.

`N=C(NCCC[C@H](N)C(=O)O)N[N+](=O)[O-]` [N^ω-nitro-L-arginine, reference compound] showed a Nitrite ([2]; 1.0 μM) of 103.9 ± 3.5 nM, a Nitrite ([2]; 10.0 μM) of 88.5 ± 4.1 nM and a Nitrite ([2]; 100.0 μM) of 109.7 ± 1.9 nM.

With `COc1cc2c3c(cc4ccccc4c3c1OC)NC2=O` [aristolactam BII, 10-amino-3,4-methoxy-3-hydroxy-phenanthrene-1-carboxylic acid lactam] the “Neuroprotection (% protection against glutamate-induced neurotoxicity)” value ([3]; post-treatment (right after 30 min glutamate insult), 0.1 μM) was 58.5 ± 5.8 %, the “Neuroprotection (% protection against glutamate-induced neurotoxicity)” value ([3]; post-treatment (right after 30 min glutamate insult), 1.0 μM) was 68.4 ± 3.5 % and the “Neuroprotection (% protection against glutamate-induced neurotoxicity)” value ([3]; post-treatment (right after 30 min glutamate insult), 10.0 μM) was 47.8 ± 2.9 %. For the same compound, the “Neuroprotection (% protection against glutamate-induced neurotoxicity)” value ([3]; pre-treatment (1 hr prior to glutamate insult), 0.1 μM) was 0.0 ± 7.8%, the “Neuroprotection (% protection against glutamate-induced neurotoxicity)” value ([3]; pre-treatment (1 hr prior to glutamate insult), 1.0 μM) was 0.0 ± 3.2% and the “Neuroprotection (% protection against glutamate-induced neurotoxicity)” value ([3]; pre-treatment (1 hr prior to glutamate insult), 10.0 μM) was 32.2 ± 0.8 %. For the same compound, the “protection from glutamate-induced neurotoxicity (in words)” value ([3]; pre-treatment paradigm) was “did not significantly protect”, the “neuroprotective activity (in words)” value ([3]; throughout treatment paradigm) was “significant neuroprotective activity” and the “Neuroprotection (% protection against glutamate-induced neurotoxicity)” value ([3]; throughout treatment, 0.1 μM) was “no effect”. The “Neuroprotection (% protection against glutamate-induced neurotoxicity)” value ([3]; throughout treatment, 1.0 μM) was 60.8 ± 2.1 %, the “Neuroprotection (% protection against glutamate-induced neurotoxicity)” value ([3]; throughout treatment, 10.0 μM) was 52.2 ± 3.2 % and the Nitrite ([2]; 0.1 μM) was 87.0 ± 0.8 nM. The Nitrite ([2]; 1.0 μM) was 86.8 ± 2.2 nM, the Nitrite ([2]; 10.0 μM) was 103.2 ± 1.2 nM and the “NO content in cultures treated with glutamate plus compound (in words)” value ([2]; versus glutamate alone) was “increased only slightly”. For the same compound, the “protective effect on activity of catalase (in words)” value (catalase) was “no significant protective effects”, the “protective effect on activity of SOD (in words)” value (SOD) was “no significant protective effects” and the “protective effect on activity of GSH-px (in words)” value (GSH-px) was “no significant protective effects”.

For saurolactam-3-O-(E)-p-methoxycinnamate, the “Neuroprotection (% protection against glutamate-induced neurotoxicity)” value ([3]; Table 6, pre-treatment, 0.1 μM) was 29.8 ± 8.2 %, the “Neuroprotection (% protection against glutamate-induced neurotoxicity)” value ([3]; Table 6, pre-treatment, 1.0 μM) was 67.2 ± 9.6 % and the “Neuroprotection (% protection against glutamate-induced neurotoxicity)” value ([3]; Table 6, pre-treatment, 10.0 μM) was 80.6 ± 9.5 %. For the same compound, the “Neuroprotection (% protection against glutamate-induced neurotoxicity)” value ([3]; Table 7, post-treatment, 0.1 μM) was 62.1 ± 1.8 %, the “Neuroprotection (% protection against glutamate-induced neurotoxicity)” value ([3]; Table 7, post-treatment, 1.0 μM) was 70.3 ± 3.2 % and the “Neuroprotection (% protection against glutamate-induced neurotoxicity)” value ([3]; Table 7, post-treatment, 10.0 μM) was 48.2 ± 1.5 %. The “neuroprotective activity on glutamate-induced neurotoxicity (in words)” value [3, 6] was “significant neuroprotective activity”, the “block of NO synthesis (in words)” value [2, 6] was “significantly block” and the Nitrite post-treatment ([2]; 0.1 μM) was 143.6 ± 5.7 nM. It also gave a Nitrite post-treatment ([2]; 1.0 μM) of 97.5 ± 26.3 nM, a Nitrite post-treatment ([2]; 10.0 μM) of 118.1 ± 2.1 nM and a Nitrite pre-treatment ([2]; 0.1 μM) of 125.0 ± 6.8 nM. For the same compound, the Nitrite pre-treatment ([2]; 1.0 μM) was 74.8 ± 6.5 nM, the Nitrite pre-treatment ([2]; 10.0 μM) was 71.4 ± 2.1 nM and the “block of increase of intracellular Ca2+ induced by excess glutamate (in words)” value [4] was “successfully block”. For the same compound, the “[Ca2+]i” value ([4]; 0.1 μM) was 233.3 ± 14.9 nM, the “[Ca2+]i” value ([4]; 1.0 μM) was 145.8 ± 26.3 nM and the “[Ca2+]i” value ([4]; 10.0 μM) was 96.1 ± 4.1 nM. The “cellular peroxide level (in words)” value [5] was “reduced”.
